# Key:
# SK-MEL-2 = experiment: Growth inhibition of human SK-MEL-2 cells assessed as cell growth at 10 uM by sulforhodamine B assay relative to control; values are per cent of control
# K562 = experiment: Growth inhibition of human K562 cells assessed as cell growth at 10 uM by sulforhodamine B assay relative to control; values are per cent of control
# SNB-19 = experiment: Growth inhibition of human SNB19 cells assessed as cell growth at 10 uM by sulforhodamine B assay relative to control; values are per cent of control
# MDA-MB-435 = experiment: Growth inhibition of human MDA-MB-435 cells assessed as cell growth at 10 uM by sulforhodamine B assay relative to control; values are per cent of control
# HCT-116 [1] = experiment: Growth inhibition of human HCT116 cells assessed as cell growth at 10 uM by sulforhodamine B assay relative to control; values are per cent of control
# A549 = experiment: Growth inhibition of human A549/ATCC cells assessed as cell growth at 10 uM by sulforhodamine B assay relative to control; values are per cent of control
# T47D = experiment: Growth inhibition of human T47D cells assessed as cell growth at 10 uM by sulforhodamine B assay relative to control; values are per cent of control
# [2] = Growth inhibition of human SF539 cells assessed as cell growth at 10 uM by sulforhodamine B assay relative to control; values are per cent of control; details: SF-539
# [3] = Growth inhibition of human OVCAR5 cells assessed as cell growth at 10 uM by sulforhodamine B assay relative to control; values are per cent of control; details: OVCAR-5
# [4] = Growth inhibition of human OVCAR4 cells assessed as cell growth at 10 uM by sulforhodamine B assay relative to control; values are per cent of control; details: OVCAR-4
# SN12C = experiment: Growth inhibition of human SN12C cells assessed as cell growth at 10 uM by sulforhodamine B assay relative to control; values are per cent of control
# COLO 205 = experiment: Growth inhibition of human COLO205 cells assessed as cell growth at 10 uM by sulforhodamine B assay relative to control; values are per cent of control
# UACC-62 = experiment: Growth inhibition of human UACC62 cells assessed as cell growth at 10 uM by sulforhodamine B assay relative to control; values are per cent of control
# NCI-H522 = experiment: Growth inhibition of human NCI-H522 cells assessed as cell growth at 10 uM by sulforhodamine B assay relative to control; values are per cent of control
# SK-OV-3 = experiment: Growth inhibition of human SKOV3 cells assessed as cell growth at 10 uM by sulforhodamine B assay relative to control; values are per cent of control
# [5] = Growth inhibition of human HOP92 cells assessed as cell growth at 10 uM by sulforhodamine B assay relative to control; values are per cent of control; details: HOP-92
# NCI-H460 = experiment: Growth inhibition of human NCI-H460 cells assessed as cell growth at 10 uM by sulforhodamine B assay relative to control; values are per cent of control
# A498 = experiment: Growth inhibition of human A498 cells assessed as cell growth at 10 uM by sulforhodamine B assay relative to control; values are per cent of control
# ACHN = experiment: Growth inhibition of human ACHN cells assessed as cell growth at 10 uM by sulforhodamine B assay relative to control; values are per cent of control
# SR = experiment: Growth inhibition of human SR cells assessed as cell growth at 10 uM by sulforhodamine B assay relative to control; values are per cent of control
# HT-29 = experiment: Growth inhibition of human HT-29 cells assessed as cell growth at 10 uM by sulforhodamine B assay relative to control; values are per cent of control
# BT-549 [6] = experiment: Growth inhibition of human BT549 cells assessed as cell growth at 10 uM by sulforhodamine B assay relative to control; values are per cent of control
# SF-268 = experiment: Growth inhibition of human SF268 cells assessed as cell growth at 10 uM by sulforhodamine B assay relative to control; values are per cent of control
# DU-145 [7] = experiment: Growth inhibition of human DU145 cells assessed as cell growth at 10 uM by sulforhodamine B assay relative to control; values are per cent of control
# Malme-3M = experiment: Growth inhibition of human MALME-3M cells assessed as cell growth at 10 uM by sulforhodamine B assay relative to control; values are per cent of control
# IGROV-1 = experiment: Growth inhibition of human IGROV1 cells assessed as cell growth at 10 uM by sulforhodamine B assay relative to control; values are per cent of control
# [8] = Cytotoxicity against human OVCAR5 cells by sulforhodamine B assay; format: functional
# BT-549 [9] = experiment: Cytotoxicity against human BT549 cells by sulforhodamine B assay; format: functional
# [10] = Cytotoxicity against human UACC257 cells by sulforhodamine B assay; format: functional
# HCT-116 [11] = experiment: Cytotoxicity against human HCT116 cells by sulforhodamine B assay; format: functional
# NCI-H322M = experiment: Cytotoxicity against human NCI-H322M cells by sulforhodamine B assay; format: functional
# DU-145 [12] = experiment: Cytotoxicity against human DU145 cells by sulforhodamine B assay; format: functional
# [13] = read-out: LC50 (the source's name)
structure (smiles),measurement,setting,value
COc1ccc(/C=C/c2ccc(/C=C/C(=O)c3ccc(Cl)cc3)cc2)cc1,"growth, % of control at 10 µM",SK-MEL-2,101%
same,"growth, % of control at 10 µM",K562,87.3%
same,"growth, % of control at 10 µM",SNB-19,97.5%
same,"growth, % of control at 10 µM",MDA-MB-435,95.3%
same,"growth, % of control at 10 µM",HCT-116 [1],93.3%
same,"growth, % of control at 10 µM",A549,91.8%
same,"growth, % of control at 10 µM",T47D,83.4%
same,"growth, % of control at 10 µM",[2],109%
same,"growth, % of control at 10 µM",[3],102%
same,"growth, % of control at 10 µM",[4],102%
same,"growth, % of control at 10 µM",SN12C,99.8%
same,"growth, % of control at 10 µM",COLO 205,111%
same,"growth, % of control at 10 µM",UACC-62,105%
same,"growth, % of control at 10 µM",NCI-H522,106%
same,"growth, % of control at 10 µM",SK-OV-3,102%
same,"growth, % of control at 10 µM",[5],98.5%
same,"growth, % of control at 10 µM",NCI-H460,101%
same,"growth, % of control at 10 µM",A498,76%
same,"growth, % of control at 10 µM",ACHN,110%
same,"growth, % of control at 10 µM",SR,82.4%
same,"growth, % of control at 10 µM",HT-29,93%
same,"growth, % of control at 10 µM",BT-549 [6],93.4%
same,"growth, % of control at 10 µM",SF-268,96.5%
same,"growth, % of control at 10 µM",DU-145 [7],103%
same,"growth, % of control at 10 µM",Malme-3M,103%
COc1ccc(C(=O)/C=C/c2ccc(/C=C/c3ccc(F)cc3)cc2)cc1,"growth, % of control at 10 µM",SK-MEL-2,96.2%
same,"growth, % of control at 10 µM",K562,86.3%
same,"growth, % of control at 10 µM",SNB-19,100%
same,"growth, % of control at 10 µM",MDA-MB-435,98.9%
same,"growth, % of control at 10 µM",HCT-116 [1],95.8%
same,"growth, % of control at 10 µM",IGROV-1,112%
same,"growth, % of control at 10 µM",A549,94.9%
same,"growth, % of control at 10 µM",T47D,93.8%
same,"growth, % of control at 10 µM",[2],108%
same,"growth, % of control at 10 µM",[3],102%
same,"growth, % of control at 10 µM",[4],115%
same,"growth, % of control at 10 µM",SN12C,102%
same,"growth, % of control at 10 µM",COLO 205,107%
same,"growth, % of control at 10 µM",UACC-62,104%
same,"growth, % of control at 10 µM",NCI-H522,84%
same,"growth, % of control at 10 µM",SK-OV-3,99.1%
same,"growth, % of control at 10 µM",[5],108%
same,"growth, % of control at 10 µM",NCI-H460,104%
same,"growth, % of control at 10 µM",A498,87.5%
same,"growth, % of control at 10 µM",ACHN,102%
same,"growth, % of control at 10 µM",SR,91%
same,"growth, % of control at 10 µM",HT-29,104%
same,"growth, % of control at 10 µM",BT-549 [6],101%
same,"growth, % of control at 10 µM",SF-268,113%
same,"growth, % of control at 10 µM",DU-145 [7],109%
same,"growth, % of control at 10 µM",Malme-3M,99.9%
COc1ccc(C(=O)/C=C/c2ccc(/C=C/c3ccc(Cl)cc3)cc2)cc1,"growth, % of control at 10 µM",SK-MEL-2,106%
same,"growth, % of control at 10 µM",K562,87.8%
same,"growth, % of control at 10 µM",SNB-19,97.6%
same,"growth, % of control at 10 µM",MDA-MB-435,103%
same,"growth, % of control at 10 µM",HCT-116 [1],97.5%
same,"growth, % of control at 10 µM",IGROV-1,95.7%
same,"growth, % of control at 10 µM",A549,100%
same,"growth, % of control at 10 µM",T47D,81.6%
same,"growth, % of control at 10 µM",[2],99.9%
same,"growth, % of control at 10 µM",[3],96.6%
same,"growth, % of control at 10 µM",[4],107%
same,"growth, % of control at 10 µM",SN12C,97.4%
same,"growth, % of control at 10 µM",COLO 205,107%
same,"growth, % of control at 10 µM",UACC-62,92.7%
same,"growth, % of control at 10 µM",NCI-H522,125%
same,"growth, % of control at 10 µM",SK-OV-3,99.3%
same,"growth, % of control at 10 µM",[5],102%
same,"growth, % of control at 10 µM",NCI-H460,102%
same,"growth, % of control at 10 µM",A498,78.1%
same,"growth, % of control at 10 µM",ACHN,94.6%
same,"growth, % of control at 10 µM",SR,85.6%
same,"growth, % of control at 10 µM",HT-29,104%
same,"growth, % of control at 10 µM",BT-549 [6],103%
same,"growth, % of control at 10 µM",SF-268,96.5%
same,"growth, % of control at 10 µM",DU-145 [7],108%
same,"growth, % of control at 10 µM",Malme-3M,87.4%
COc1ccc(C(=O)/C=C/c2ccc(/C=C/c3cc(OC)c(OC)c(OC)c3)cc2)cc1,"growth, % of control at 10 µM",SK-MEL-2,65.1%
same,"growth, % of control at 10 µM",K562,14.4%
same,"growth, % of control at 10 µM",SNB-19,74.4%
same,"growth, % of control at 10 µM",MDA-MB-435,41%
same,GI50,[8]; OVCAR-5,34.1 µM
same,TGI,[8]; OVCAR-5,> 100 µM
same,CC50,"[8]; OVCAR-5, read-out: LC50 (the source's name)",> 100 µM
same,"growth, % of control at 10 µM",HCT-116 [1],17.5%
same,"growth, % of control at 10 µM",IGROV-1,6.66%
same,GI50,BT-549 [9],3.36 µM
same,TGI,BT-549 [9],16.8 µM
same,CC50,BT-549 [9]; [13],> 100 µM
same,GI50,[10]; UACC-257,9 µM
same,TGI,[10]; UACC-257,> 100 µM
same,CC50,"[10]; UACC-257, read-out: LC50 (the source's name)",> 100 µM
same,"growth, % of control at 10 µM",A549,36.4%
same,"growth, % of control at 10 µM",T47D,43.4%
same,GI50,HCT-116 [11],2.62 µM
same,TGI,HCT-116 [11],> 100 µM
same,CC50,HCT-116 [11]; [13],> 100 µM
same,"growth, % of control at 10 µM",[2],86.3%
same,"growth, % of control at 10 µM",[3],117%
same,"growth, % of control at 10 µM",[4],65.7%
same,"growth, % of control at 10 µM",SN12C,56.7%
same,"growth, % of control at 10 µM",COLO 205,68.2%
same,"growth, % of control at 10 µM",UACC-62,53.6%
same,"growth, % of control at 10 µM",NCI-H522,5.55%
same,"growth, % of control at 10 µM",SK-OV-3,102%
same,"growth, % of control at 10 µM",[5],51.9%
same,"growth, % of control at 10 µM",NCI-H460,59.6%
same,"growth, % of control at 10 µM",A498,80%
same,"growth, % of control at 10 µM",ACHN,68.1%
same,GI50,NCI-H322M,1.98 µM
same,TGI,NCI-H322M,> 100 µM
same,CC50,NCI-H322M; [13],> 100 µM
same,GI50,DU-145 [12],10.2 µM
same,TGI,DU-145 [12],> 100 µM
same,CC50,DU-145 [12]; [13],> 100 µM
same,"growth, % of control at 10 µM",SR,9.61%
same,"growth, % of control at 10 µM",HT-29,36.2%
same,"growth, % of control at 10 µM",BT-549 [6],41.6%
same,"growth, % of control at 10 µM",SF-268,66.2%
same,"growth, % of control at 10 µM",DU-145 [7],68.4%
same,"growth, % of control at 10 µM",Malme-3M,66.8%

# — ChEMBL document CHEMBL3132854, “Synthesis and anticancer activity evaluation of resveratrolchalcone conjugates” (2014)
